Test results reported in patent publication US11571460B2 (priority 2017, dated 2023).

How the values were obtained:
[1] = test system: bone marrow-derived macrophages (BMDM); assay: Quantitative real-time PCR in bone marrow-derived macrophages; assay type: cell-based, mouse
Experimental: Cells were harvested as previously described to generate mouse bone marrow-derived macrophages. The cells were cultured for 7 days in an RPMI-1640 complete culture medium containing 10 ng/ml of mouse recombinant M-CSF (R & D systems, Minneapolis, Minn., USA). After the cells were differentiated into M0 macrophages, the cells were smeared in a 6-well plate (1×10^6 cells/well) and cultured overnight under 100 ng/ml LPS or 20 ng/ml mouse recombinant IL-4 (R & D system) to induce differentiation of M1 or M2 phenotype macrophages.
(§1) Quantitative real time PCR was performed according to previous reports. Data were expressed as […] for experimental genes, normalized to GAPDH, and expressed as a fold change compared to an LPS or IL-4 untreated control group. The following primers were used: Gapdh(for: […] (SEC) ID NO: 1); rev: […] (SEQ ID NO: 2)), Tnf-α(for: TTCTG […] (SEQ ID NO: 3); rev: GTAT […] (SEQ ID NO: 4), Mrc1/CD206(for: […] (SEQ ID NO: 5); rev: GGTT […] (SEQ ID NO: 6)), I1-10(for: […] (SEQ ID NO: 7); rev: […] (SEQ ID NO: 8)), Tgf-β(for: […] (SEQ ID NO: 9); rev: […] (SEQ ID NO: 10)), Vegf(for: GGAGA […] (SEQ ID NO: 11); rev: […](SEQ ID NO: 12)), F1t1/VEGFR1(for: […] (SEQ. ID NO: 13); rev: […] (SEQ ID NO: 14)).

[2] = test system: tumor tissue; assay: Immunofluorescence confocal microscopy of VEGF and CD31 in tumor tissue; assay type: in vivo, mice
Experimental: The tumor of inoculated mice was fixed overnight with paraformaldehyde, dehydrated, and then placed in paraffin. Slices (5 μm thick) of the inserted tissue were cut in a rotary microtome and deparaffinized. The antigens of the slides were recovered by an autoclave in a trisodium citrate buffer (pH 6) for 1 minute, washed with PBS and then blocked for 1 hour with 1.5% BSA containing 0.2% Triton X-100. The slides were cultured overnight at 4° C. with anti-VEGF and anti-CD31 primary antibodies (1:200, Santa Cruz Biotechnology, Santa Cruz, Calif., USA).
All tissue slices were cultured at room temperature for 1 hour and then visualized with an alexa-488 or alexa-594 conjugated secondary antibody (1:500, Invitrogen). All the antibodies were diluted with a 0.5% BSA solution and cultured in a wet chamber. The slides were fixed with a DAPI solution and analyzed by laser scanning confocal microscopy (Bio-Rad, Richmond, Calif., USA). All images were captured with LSM and total integration density was measured with image J software.

[3] = test system: lung cancer cells; assay: Cell cycle analysis by PI staining and flow cytometry; assay type: cell-based; settings: 0.1 to 2 μg/mL melittin
Experimental: The cells were collected, washed twice with PBS, fixed with 70% pre-cooled ethanol and stored at −20° C. overnight. The cells were washed and resuspended in PBS 500 μl containing 0.1% Triton X-100 and RNase 20 μg/ml. Next, 50 μg/ml of propidium iodide (PI) was added. Stained cells were cultured at 37° C. for 20 minutes and then detected by a FACS Calibur flow cytometer (Becton Dickinson, San Jose, Calif., USA). Data were analyzed by Flow Jo software (Treestar, Inc., San Carlos, Calif., USA).

[4] = test system: Lewis lung carcinoma cells; assay: Quantitative real-time PCR in Lewis lung carcinoma cells; assay type: cell-based; settings: control vs melittin-treated
Experimental: as §1

[5] = test system: Lewis lung carcinoma cells; assay: Tumor growth and survival in mice injected subcutaneously with Lewis lung carcinoma cells; assay type: in vivo, C57BL/6 mice
Experimental: A cancer growth rate in the control group was fast, but the cancer growth in the melittin-treated group was late.
(§2) Lewis lung carcinoma cells were mixed with a Matrigel matrix (Coming, N.Y., USA) to generate a tumor model. Male C57BL/6 wild-type mice (6 to 8 weeks old) were inoculated subcutaneously in the right flank with 5×10^4 cells per mouse. […] Before 3 days of tumor injection, macrophage deficiency was performed by clodronate liposomes (first dose of 200 μl per mouse, maintenance dose of 100 μl intraperitoneally every 4 days). Clodronate liposome and control liposome were purchased from FormuMax (Sunnyvale, Calif., USA). A tumor size was monitored every 2 to 3 days by measuring two opposite diameters (volume=length×width×width/2). If the tumor size exceeded 5% of the body weight, the mice were sacrificed for a next experiment set. Thereafter, the tumor and the spleen were surgically removed.

[6] = test system: splenocytes; assay: Flow cytometry of immune cells in splenocytes of tumor-bearing mice; assay type: in vivo
Experimental: A tissue was dissociated by cutting the tumor into thin pieces and gently stirring in DNase I (1 U/ml; Roche, Indianapolis, trypsin-EDTA (Gibco)) under DMEM (Welgene) preheated at 37° C. for 1 hour. The tissue was mechanically dissociated in a 100 μm nylon mesh strainer, then single cells passed through a 40 μm nylon mesh strainer, and the spleen was mechanically dissociated with a 40 μm nylon mesh strainer. RBC was dissolved for 5 minutes in a 1× pharmlyse buffer.
The cells were stained with fluorescent tag antibodies. All data were detected by a FACS Calibur flow cytometer and analyzed with FlowJo software. CD45-FITC, CD3-FITC, CD4-PE, CD4-FITC, CD8-APC, CD11b-APC, CD11 c-PE, CD25 (CD12-FITC)-PE, CD25-APC, B220-FITC, CD19-PE, CD86-APC, and Foxp3-Alexa Fluor647 were purchased from BD bioscience and F4/80-PE and CD206-APC were purchased from Biolegend (San Diego, Calif., USA).
as §2
Screening of the immune cells was performed by flow cytometry on CD4^+ T cells, CD8^+ T cells, B cells, dendritic cells, and macrophages from splenocytes of mice with cancer. The flow cytometry was performed in the same manner as Example 3-2.

[7] = test system: M1-type bone marrow-derived macrophages; assay: Intracellular ROS production by H2DCFDA staining; assay type: cell-based, mouse; settings: melittin-treated vs control, 24 hours
Experimental: The cells were added with 5 μM C2′,7′-dichlorodihydrofluorescein diacetate (H2DCFDA; molecular probe) and cultured at 37° C. for 30 minutes. The H2DCFDA-containing medium was removed and the cells were washed twice with preheated PBS. After the cells were collected, ROS production levels were immediately analyzed using flow cytometry.

[8] = melittin-treated tumor-bearing mice

Structure (SMILES): CC[C@H](C)[C@H](NC(=O)CN)C(=O)NCC(=O)N[C@@H](C)C(=O)N[C@H](C(=O)N[C@@H](CC(C)C)C(=O)N[C@@H](CCCCN)C(=O)N[C@H](C(=O)N[C@@H](CC(C)C)C(=O)N[C@H](C(=O)N[C@H](C(=O)NCC(=O)N[C@@H](CC(C)C)C(=O)N1CCC[C@H]1C(=O)N[C@@H](C)C(=O)N[C@@H](CC(C)C)C(=O)N[C@H](C(=O)N[C@@H](CO)C(=O)N[C@@H](Cc1c[nH]c2ccccc12)C(=O)N[C@H](C(=O)N[C@@H](CCCCN)C(=O)N[C@@H](CCCNC(=N)N)C(=O)N[C@@H](CCCCN)C(=O)N[C@@H](CCCNC(=N)N)C(=O)N[C@@H](CCC(N)=O)C(=O)N[C@@H](CCC(N)=O)C(N)=O)[C@@H](C)CC)[C@@H](C)CC)[C@@H](C)O)[C@@H](C)O)C(C)C)C(C)C [melittin]
- gene level of TNF-α ([1]; LPS stimulation): did not affect
- gene expression level of IL-10 ([1]; M2-type BMDM (IL-4)): not changed
- gene expression level of TGF-β ([1]; M2-type BMDM (IL-4)): not changed
- mRNA level for Mrc1/Cd206 compared to the control group ([1]; M2-type BMDM (IL-4)): significantly reduced
- mRNA level for Vegf compared to the control group ([1]; M2-type BMDM (IL-4)): significantly reduced
- integrated density of VEGF (image J) ([2]; 0.5 mg/kg and 1 mg/kg vs PBS control group): significant difference
- level of CD31 by immunofluorescence staining ([2]; compared to a PBS group): decrease
- level of VEGF by immunofluorescence staining ([2]; compared to a PBS group): decrease
- direct killing effect on cancer cells [3]: no direct killing effect
- percentage of cells at each cell cycle stage ([3]; 24 hours): no percentage change
- mRNA level of Vegf [4]: no large difference
- mRNA level of flt1/VFGFR [4]: no large difference
- cancer growth reduced compared to the control group ([5]; 0.5 mg/kg melittin peptide intraperitoneal, after 13 days of administration): 40%
- cancer growth suppressed compared to the control group ([5]; 0.5 mg/kg melittin peptide intraperitoneal, day 15): about 45%
- survival period vs control group (PBS-treated), Mantel-Cox analysis ([5]; tumor-bearing mice): significantly longer
- other immune cells from total splenocytes ([6]; control vs melittin-treated groups): no percentage change
- CD45+F480+ macrophages in splenocytes [6, 8]: 5.10±0.42
- number of regulatory T cells in splenocytes [6, 8]: decreased slightly
- level of M1 or M2 type macrophages in splenocytes ([6]; spleen): not changed
- intracellular ROS levels [7]: no difference
